# Results: the Kinase Knowledgebase extract (Sharma et al. 2016)
# pIC50: −log10 of the molar value. Positions of bridges follow the written chain, without caps; N, C: chain ends. Non-standard residues stand in square brackets, D forms with d. Residues, ends and D or L forms follow the SMILES beside them. *: point of attachment. pY = N[C@@H](Cc1ccc(OP(=O)(O)O)cc1)C(=O)O; O(2-Aminobenzoyl) = Nc1ccccc1C(=O)O*; X9 = O=S(=O)(O*)c1cccc2cccnc12; X13 = Nc1cc2ccccc2cc1C(=O)O*; X2 = O=C(O*)c1cc2ccccc2[nH]1; X3 = O=C(O*)c1cnc2ccccc2c1; X7 = O=C(O*)c1cc2ccccc2cn1; X8 = Nc1cc(N)cc(C(=O)O*)c1; X12 = Nc1ccccc1C(=O)OCCN*; X5 = O=C(O*)C1Cc2ccccc2N1; Ac6c = NC1(C(=O)O)CCCCC1; X11 = Nc1ccc(C(=O)O*)cc1; Ac5c = NC1(C(=O)O)CCCC1; X1 = Nc1ccccc1C(=O)OCN*; X6 = Nc1cccc(C(=O)O*)c1; X10 = Nc1ncccc1C(=O)O*; X4 = O=C(O*)c1ccccc1O; Acm = CC(=O)NC*
# Target: EGFR (UniProt P00533)
# Sequence (P00533 whole entry, looked up): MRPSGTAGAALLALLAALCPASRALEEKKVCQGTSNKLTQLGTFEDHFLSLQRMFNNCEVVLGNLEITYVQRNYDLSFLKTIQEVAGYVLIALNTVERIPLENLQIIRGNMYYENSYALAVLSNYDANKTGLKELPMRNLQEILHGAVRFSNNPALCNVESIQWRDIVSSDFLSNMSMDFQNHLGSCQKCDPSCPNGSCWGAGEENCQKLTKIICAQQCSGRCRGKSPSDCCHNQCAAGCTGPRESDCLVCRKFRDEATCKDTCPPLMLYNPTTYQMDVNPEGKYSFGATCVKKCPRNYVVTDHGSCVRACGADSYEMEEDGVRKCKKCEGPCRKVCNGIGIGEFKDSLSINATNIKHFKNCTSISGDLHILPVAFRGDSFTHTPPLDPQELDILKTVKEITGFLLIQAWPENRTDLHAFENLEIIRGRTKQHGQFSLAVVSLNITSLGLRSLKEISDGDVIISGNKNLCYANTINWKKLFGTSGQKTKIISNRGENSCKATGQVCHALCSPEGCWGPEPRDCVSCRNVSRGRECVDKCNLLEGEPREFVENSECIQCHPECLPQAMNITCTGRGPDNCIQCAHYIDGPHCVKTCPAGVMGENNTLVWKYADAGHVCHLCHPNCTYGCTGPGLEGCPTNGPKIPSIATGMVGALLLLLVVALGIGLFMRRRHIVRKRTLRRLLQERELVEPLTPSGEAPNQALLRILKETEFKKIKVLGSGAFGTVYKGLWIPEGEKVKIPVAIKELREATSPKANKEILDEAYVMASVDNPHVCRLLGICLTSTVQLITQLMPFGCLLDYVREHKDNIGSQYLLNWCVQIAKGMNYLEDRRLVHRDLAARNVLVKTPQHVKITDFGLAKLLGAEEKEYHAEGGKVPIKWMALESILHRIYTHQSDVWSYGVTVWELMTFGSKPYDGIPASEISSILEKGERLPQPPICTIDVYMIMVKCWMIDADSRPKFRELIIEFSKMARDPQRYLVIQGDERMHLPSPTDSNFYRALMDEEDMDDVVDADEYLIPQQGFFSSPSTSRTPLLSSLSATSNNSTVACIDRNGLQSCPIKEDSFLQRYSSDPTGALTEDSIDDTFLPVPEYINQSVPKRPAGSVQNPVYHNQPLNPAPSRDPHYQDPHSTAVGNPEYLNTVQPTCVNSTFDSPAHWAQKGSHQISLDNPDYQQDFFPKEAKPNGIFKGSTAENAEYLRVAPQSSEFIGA
row,Structure (SMILES),pIC50
1,CC(=O)NCSC[C@H](NC(=O)[C@H](CC(N)=O)NC(=O)[C@@H](N)CCC(N)=O)C(=O)N[C@@H](Cc1ccc(OP(=O)(O)O)cc1)C(=O)N[C@@H](CSCNC(C)=O)C(=O)OC(=O)c1ccccc1N (H-QNC(Acm)[pY]C(Acm)-{O(2-Aminobenzoyl)}),5.50
2,CC[C@H](C)[C@H](NC(=O)[C@H](CC(N)=O)NC(=O)[C@@H](N)CCC(N)=O)C(=O)N[C@@H](Cc1ccc(OP(=O)(O)O)cc1)C(=O)N[C@@H](CCC(=O)O)C(=O)OC(=O)c1ccc(N)cc1 (H-QNI[pY]E-X11),6.64
3,CC[C@H](C)[C@H](NC(=O)[C@H](CC(N)=O)NC(=O)[C@@H](N)CCC(N)=O)C(=O)N[C@@H](Cc1ccc(OP(=O)(O)O)cc1)C(=O)N[C@H](C(=O)OC(=O)c1ccccc1N)[C@@H](C)CC (H-QNI[pY]I-{O(2-Aminobenzoyl)}),8.22
4,CC[C@H](C)[C@H](N)C(=O)N[C@H](C(=O)N[C@@H](Cc1ccc(OP(=O)(O)O)cc1)C(=O)N[C@@H](CC(=O)O)C(=O)OC(=O)c1ccccc1N)[C@@H](C)CC (H-II[pY]D-{O(2-Aminobenzoyl)}),6.64
5,CC[C@H](C)[C@H](NC(=O)[C@H](CC(N)=O)NC(=O)[C@@H](N)CCC(N)=O)C(=O)N[C@@H](Cc1ccc(OP(=O)(O)O)cc1)C(=O)N[C@@H](CCC(=O)O)C(=O)OC(=O)C1Cc2ccccc2N1 (some centres undefined) (H-QNI[pY]E-X5),7.13
6,CC[C@H](C)[C@@H]1NC(=O)[C@H](CC(N)=O)NC(=O)[C@@H](N)CSSC[C@@H](C(=O)OC(=O)c2ccccc2N)NC(=O)[C@H](Cc2ccc(OP(=O)(O)O)cc2)NC1=O (H-CNI[pY]C-{O(2-Aminobenzoyl)}; disulfide 1-5),6.67
7,CC[C@H](C)[C@H](NC(=O)[C@H](CC(N)=O)NC(=O)[C@@H](N)CCC(N)=O)C(=O)N[C@@H](Cc1ccc(OP(=O)(O)O)cc1)C(=O)N[C@@H](CCC(=O)O)C(=O)OC(=O)c1cnc2ccccc2c1 (H-QNI[pY]E-X3),6.09
8,CC[C@H](C)[C@H](NC(=O)[C@H](CC(N)=O)NC(=O)[C@@H](N)CCC(N)=O)C(=O)N[C@@H](Cc1ccc(OP(=O)(O)O)cc1)C(=O)N[C@@H](CCC(=O)O)C(=O)OC(=O)c1cccnc1N (H-QNI[pY]E-X10),6.32
9,CC[C@H](C)[C@H](NC(=O)[C@H](CC(N)=O)NC(=O)[C@H](N)CSCNC(C)=O)C(=O)N[C@@H](Cc1ccc(OP(=O)(O)O)cc1)C(=O)N[C@@H](CSCNC(C)=O)C(=O)OC(=O)c1ccccc1N,6.57
10,CC[C@H](C)[C@H](NC(=O)[C@H](CC(N)=O)NC(=O)[C@@H](N)CCC(N)=O)C(=O)N[C@@H](Cc1ccc(OP(=O)(O)O)cc1)C(=O)N[C@H](C(=O)OC(=O)c1ccccc1N)C(C)C (H-QNI[pY]V-{O(2-Aminobenzoyl)}),6.97
11,CC[C@H](C)[C@H](NC(=O)[C@H](CC(N)=O)NC(=O)[C@@H](N)CCC(N)=O)C(=O)N[C@@H](Cc1ccc(OP(=O)(O)O)cc1)C(=O)N[C@H](C(=O)OS(=O)(=O)c1cccc2cccnc12)[C@@H](C)CC (H-QNI[pY]I-X9),6.64
12,CC[C@H](C)[C@H](NC(=O)[C@@H](N)CC(N)=O)C(=O)N[C@@H](Cc1ccc(OP(=O)(O)O)cc1)C(=O)N[C@@H](CCC(=O)O)C(=O)OC(=O)c1ccccc1N (H-NI[pY]E-{O(2-Aminobenzoyl)}),7.66
13,CC[C@H](C)[C@H](NC(=O)[C@H](CC(N)=O)NC(=O)[C@@H](N)CCC(N)=O)C(=O)N[C@@H](Cc1ccc(OP(=O)(O)O)cc1)C(=O)N[C@@H](CCC(=O)O)C(=O)OC(=O)c1ccccc1N (H-QNI[pY]E-{O(2-Aminobenzoyl)}),7.66
14,CC[C@H](C)[C@@H]1NC(=O)[C@H](CC(N)=O)NC(=O)[C@H](CCC(N)=O)NC(=O)[C@@H](N)CSSC[C@@H](C(=O)OC(=O)c2ccccc2N)NC(=O)[C@H](Cc2ccc(OP(=O)(O)O)cc2)NC1=O (H-CQNI[pY]C-{O(2-Aminobenzoyl)}; disulfide 1-6),7.82
15,CC[C@H](C)[C@H](NC(=O)[C@H](CC(N)=O)NC(=O)[C@@H](N)CCC(N)=O)C(=O)N[C@@H](Cc1ccc(OP(=O)(O)O)cc1)C(=O)N[C@@H](CCC(=O)O)C(=O)OC(=O)c1ccccc1O (H-QNI[pY]E-X4),6.11
16,NC(=O)C[C@H](N)C(=O)NC1(C(=O)N[C@@H](Cc2ccc(OP(=O)(O)O)cc2)C(=O)N[C@@H](CCC(=O)O)C(=O)OC(=O)c2ccccc2N)CCCCC1 (H-N[Ac6c][pY]E-{O(2-Aminobenzoyl)}),7.85
17,CC[C@H](C)[C@H](NC(=O)[C@H](CC(N)=O)NC(=O)[C@@H](N)CCC(N)=O)C(=O)N[C@@H](Cc1ccc(OP(=O)(O)O)cc1)C(=O)N[C@@H](CCC(=O)O)C(=O)OC(=O)c1cccc(N)c1 (H-QNI[pY]E-X6),7.24
18,CC[C@H](C)[C@H](NC(=O)[C@H](CC(N)=O)NC(=O)[C@@H](N)CCC(N)=O)C(=O)N[C@@H](Cc1ccc(OP(=O)(O)O)cc1)C(=O)N[C@@H](CCC(=O)O)C(=O)NCCOC(=O)c1ccccc1N (H-QNI[pY]E-X12),6.89
19,NC(=O)CC[C@H](N)C(=O)N[C@@H](CC(N)=O)C(=O)N[C@H]1CSSC[C@@H](C(=O)OC(=O)c2ccccc2N)NC(=O)[C@H](Cc2ccc(OP(=O)(O)O)cc2)NC1=O (H-QNC[pY]C-{O(2-Aminobenzoyl)}; disulfide 3-5),6.24
20,CC[C@H](C)[C@H](NC(=O)[C@H](CC(N)=O)NC(=O)[C@@H](N)CCC(N)=O)C(=O)N[C@@H](Cc1ccc(OP(=O)(O)O)cc1)C(=O)NCOC(=O)c1ccccc1N (H-QNI[pY]-X1),8.22
21,CC[C@H](C)[C@H](NC(=O)[C@H](CC(N)=O)NC(=O)[C@@H](N)CCC(N)=O)C(=O)N[C@@H](Cc1ccc(OP(=O)(O)O)cc1)C(=O)N[C@@H](CCC(=O)O)C(=O)OC(=O)c1cc2ccccc2[nH]1 (H-QNI[pY]E-X2),6.70
22,CC[C@H](C)[C@H](NC(=O)[C@H](CC(N)=O)NC(=O)[C@@H](N)CSCNC(C)=O)C(=O)N[C@@H](Cc1ccc(OP(=O)(O)O)cc1)C(=O)N[C@@H](CSCNC(C)=O)C(=O)OC(=O)c1ccccc1N,7.02
23,CC[C@H](C)[C@H](NC(=O)[C@H](CC(N)=O)NC(=O)[C@@H](N)CCC(N)=O)C(=O)N[C@@H](Cc1ccc(OP(=O)(O)O)cc1)C(=O)N[C@@H](CC(C)C)C(=O)OC(=O)c1ccccc1N (H-QNI[pY]L-{O(2-Aminobenzoyl)}),6.86
24,CC[C@H](C)[C@H](NC(=O)[C@H](CC(N)=O)NC(=O)[C@@H](N)CCC(N)=O)C(=O)N[C@@H](Cc1ccc(OP(=O)(O)O)cc1)C(=O)N[C@@H](CCC(=O)O)C(=O)OC(=O)c1cc(N)cc(N)c1 (H-QNI[pY]E-X8),6.74
25,NC(=O)C[C@H](N)C(=O)NC1(C(=O)N[C@@H](Cc2ccc(OP(=O)(O)O)cc2)C(=O)N[C@@H](CCC(=O)O)C(=O)OC(=O)c2ccccc2N)CCCC1 (H-N[Ac5c][pY]E-{O(2-Aminobenzoyl)}),7.19
26,CC[C@H](C)[C@H](NC(=O)[C@H](CC(N)=O)NC(=O)[C@@H](N)CCC(N)=O)C(=O)N[C@@H](Cc1ccc(OP(=O)(O)O)cc1)C(=O)N[C@@H](C)C(=O)OC(=O)c1ccccc1N (H-QNI[pY]A-{O(2-Aminobenzoyl)}),7.96
27,CC[C@H](C)[C@H](NC(=O)[C@H](CC(N)=O)NC(=O)[C@@H](N)CCC(N)=O)C(=O)N[C@@H](Cc1ccc(OP(=O)(O)O)cc1)C(=O)N[C@@H](CCC(=O)O)C(=O)OC(=O)c1cc2ccccc2cc1N (H-QNI[pY]E-X13),6.22
28,CC[C@H](C)[C@H](NC(=O)[C@H](CC(N)=O)NC(=O)[C@@H](N)CCC(N)=O)C(=O)N[C@@H](Cc1ccc(OP(=O)(O)O)cc1)C(=O)N[C@@H](CCC(=O)O)C(=O)OC(=O)c1cc2ccccc2cn1 (H-QNI[pY]E-X7),6.26
29,CC[C@H](C)[C@H](NC(=O)[C@@H](N)CC(N)=O)C(=O)N[C@@H](Cc1ccc(OP(=O)(O)O)cc1)C(=O)N[C@@H](Cc1ccccc1)C(=O)OC(=O)c1ccccc1N (H-NI[pY]F-{O(2-Aminobenzoyl)}),7.27
